{"source": "ChEMBL document CHEMBL4831549", "about": "“The Marine Neurotoxin Brevetoxin (PbTx-2) Inhibits Karenia brevis and Mammalian Thioredoxin Reductases by Targeting Different Residues” (J Nat Prod, 2021)", "key": {"Karenia brevis [1]": {"system": "Karenia brevis", "assay": "Inhibition of Karenia brevis TrxR assessed as reduction in substrate reduction at 40 uM using DTNB as a substrate incubated for 60 mins in the presence of NADPH followed by substrate addition measured for 5 mins by absorbance based assay relative to control"}, "Karenia brevis [2]": {"system": "Karenia brevis", "assay": "Inhibition of Karenia brevis TrxR assessed as reduction in substrate reduction at 10 to 100 uM using H2O2 as a substrate incubated for 60 mins in the presence of NADPH followed by substrate addition measured for 15 mins by absorbance based assay relative to control", "details": "dose 10-100 µM"}, "Karenia brevis [3]": {"system": "Karenia brevis", "assay": "Inhibition of Karenia brevis TrxR assessed as reduction in substrate reduction at 40 uM using human Trx and insulin as a substrate incubated for 60 mins in the presence of NADPH followed by substrate addition measured for 5 mins by absorbance based assay relative to control"}, "Karenia brevis [4]": {"system": "Karenia brevis", "assay": "Inhibition of Karenia brevis TrxR assessed as reduction in substrate reduction at 40 uM using GSSG as a substrate incubated for 60 mins in the presence of NADPH followed by substrate addition measured for 30 mins by absorbance based assay relative to control"}, "Karenia brevis [5]": {"system": "Karenia brevis", "assay": "Inhibition of Karenia brevis TrxRD3 assessed as reduction in substrate reduction at 40 uM using DTNB as a substrate incubated for 60 mins in the presence of NADPH followed by substrate addition measured for 5 mins by absorbance based assay relative to control"}, "[6]": {"assay": "Inhibition of Karenia brevis TrxR assessed as reduction in substrate reduction using H2O2 as a substrate incubated for 60 mins in the presence of NADPH followed by substrate addition measured for 15 mins by absorbance based assay"}, "[7]": {"target": "T1, Thioredoxin reductase 1, cytoplasmic (Rattus norvegicus) (UniProt O89049)", "T1 sequence (whole entry)": "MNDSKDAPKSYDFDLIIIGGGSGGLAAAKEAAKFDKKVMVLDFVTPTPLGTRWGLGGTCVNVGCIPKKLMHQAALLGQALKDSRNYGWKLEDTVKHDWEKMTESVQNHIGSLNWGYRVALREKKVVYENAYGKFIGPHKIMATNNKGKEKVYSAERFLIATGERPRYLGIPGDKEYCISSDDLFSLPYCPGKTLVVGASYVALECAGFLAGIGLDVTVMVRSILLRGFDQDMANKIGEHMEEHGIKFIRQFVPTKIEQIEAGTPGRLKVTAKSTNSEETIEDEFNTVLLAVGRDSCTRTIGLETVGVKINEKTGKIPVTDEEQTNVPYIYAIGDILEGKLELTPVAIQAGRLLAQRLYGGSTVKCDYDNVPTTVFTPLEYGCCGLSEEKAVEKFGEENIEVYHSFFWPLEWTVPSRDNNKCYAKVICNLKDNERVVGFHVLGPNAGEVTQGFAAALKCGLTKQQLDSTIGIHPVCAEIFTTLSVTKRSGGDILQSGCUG", "assay": "Binding affinity to rat TrxR1 assessed as adduct formation at 7.2 uM by LC-MS/MS analysis"}, "Karenia brevis [8]": {"system": "Karenia brevis", "assay": "Binding affinity Karenia brevis TrxR assessed as formation at 7.2 uM by LC-MS/MS analysis"}}, "note": "Activity calls are given as the source filed them. The rule behind the calls is not given here.", "data": [{"smiles": "C=C(C=O)C[C@@H]1C[C@H](O)[C@]2(C)O[C@@H]3C[C@@H]4O[C@@H]5C[C@]6(C)O[C@]7(C)CC[C@@H]8O[C@@H]9C[C@]%10(C)O[C@@H]%11C(C)=CC(=O)O[C@H]%11C[C@H]%10O[C@H]9C[C@@H](C)[C@H]8O[C@H]7C[C@H]6O[C@@]5(C)C/C=C\\[C@H]4O[C@H]3C[C@H]2O1", "note": "[BREVETOXIN B]", "values": [{"measurement": "inhibition", "setting": "Karenia brevis [1]", "value": 44.7, "unit": "%"}, {"measurement": "inhibition", "setting": "Karenia brevis [2]", "value": 39.6, "unit": "%"}, {"measurement": "inhibition", "setting": "Karenia brevis [3]", "value": 34, "unit": "%"}, {"measurement": "inhibition", "setting": "Karenia brevis [4]", "value": 32.5, "unit": "%"}, {"measurement": "inhibition", "setting": "Karenia brevis [5]", "value": 20.7, "unit": "%"}, {"measurement": "IC50", "setting": "[6]", "value": 56, "unit": "µM"}, {"measurement": "Activity", "setting": "[7]", "value": "Active"}, {"measurement": "Activity", "setting": "Karenia brevis [8]", "value": "Active"}]}]}
